In BindingDB's records for patent US9771375 (Janssen Pharmaceutica NV, 2017):

Biological target: T1, Ketohexokinase (Human, UniProt P50053)
T1 sequence (P50053 whole entry): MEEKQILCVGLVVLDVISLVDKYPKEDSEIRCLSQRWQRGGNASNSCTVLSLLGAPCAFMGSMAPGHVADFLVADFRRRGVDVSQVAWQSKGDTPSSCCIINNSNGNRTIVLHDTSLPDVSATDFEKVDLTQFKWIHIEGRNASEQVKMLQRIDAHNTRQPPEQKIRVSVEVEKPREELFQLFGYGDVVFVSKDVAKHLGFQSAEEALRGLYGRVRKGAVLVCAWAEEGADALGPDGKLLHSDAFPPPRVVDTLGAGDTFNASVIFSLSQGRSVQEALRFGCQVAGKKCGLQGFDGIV
Assay: Enzyme Assay
Method: An enzymatic assay was developed to measure KHK-mediated conversion of D-fructose to Fructose-1-P (F-1-P) using High Throughput Mass Spectroscopy (HTMS) as a means of product detection. […] The assay was carried out in 384-well plate format.

IC50 | SMILES
390 nM | COc1nn(-c2ccccc2)c2cc(N3CN(C4CCNCC4)C3)ccc12 [US9771375, Example 73]
2710 nM | CCc1nn(-c2ccccc2)c2nc(-c3ccc(N4CCNCC4)cc3)nc(O)c12 [US9771375, Example 97]
